Measured values from patent publication US20080057047A1, “Use of bacillus amyloliquefaciens PB6 for the prophylaxis or treatment of gastrointestinal and immuno-related diseases” (priority 2005, published 2008).
≈ marks a conversion by molar mass, not a printed value. Read-outs that look alike come from different tables or passages of the source. Numbered stars: 1 amine (or outer) side, 2 acyl side, 3 side chain; on linkers, the order of the positions; unused ones are H or OH. Bridge positions count the residues as written; N and C are the ends. Square brackets hold non-standard residues; d marks the D form. Peptide text beside a SMILES is read from it. X1 = CC(C)CCCCCCCCC[C@H](CC(=O)[*:1])O[*:2]

What was measured:
TNBS-induced colitis = TNBS-induced colitis in rats; type: in vivo, Wistar rats; conditions: for number of animals affected by diarrhea / number of observations of diarrhea recorded: day 1 to 7
Text: Two consecutive trials were done. Male Wistar rats were obtained from the National Centre for Laboratory Animal Sciences (Hyderabad, India) (trial 1) or from the Department of Animal Medicine, […], India) (trial 2). […] Upon their arrival at the test facility, the animals were given a complete clinical examination under the supervision of a veterinarian to ensure that they were in good condition. The animals were acclimatized to the study conditions for a period of at least 7 days. Per trial, animals were randomised and allocated to one of the study groups. […] All animals had free access (except for the overnight fasting prior to TNBS administration) to rat pellet feed from the National Institute of Nutrition (NIN, Hyderabad, India) and Aquaguard purified water ad libitum. In both trials the day of induction of colitis was set as day 1. […] The colitis-negative control groups were given saline intrarectally (0.5 ml per animal once) on day 1. […] Except for infliximab, which was injected intravenously^59, all treatments were administered by gavage. Twice daily observations were made for clinical signs and mortality. […] These segments were opened longitudinally. […] Mesalazine (Mesacol®, Sun Pharmaceutical Ind. Ltd, Mumbai, India) tablets were powdered using pestle and mortar and a solution in distilled water was prepared containing 25 mg 5-aminosalicylic acid per ml. […] Remicade® (Infliximab) (Centocor B. V., Leiden, The Netherlands) was first reconstituted with 10 ml water for injection and was further diluted to 2 mg/ml concentration using saline. […] All body weight dependant doses were administered on the basis of the last individual body weight taken. Fresh preparations were made prior to each administration. The preparations were stirred vigorously before each dosing.

Clostridium perfringens = assay: microbe, parasite or virus in culture; type: cell-based
C. perfringens ATCC13124 = assay: microbe, parasite or virus in culture; type: cell-based; conditions: Clostridium perfringens, ATCC13124, 18 h
cytosolic PLA2 = target: T1, cytosolic PLA2 (Homo sapiens, UniProt P47712); conditions: known from literature; cited from earlier work
T1 sequence (P47712 1-749): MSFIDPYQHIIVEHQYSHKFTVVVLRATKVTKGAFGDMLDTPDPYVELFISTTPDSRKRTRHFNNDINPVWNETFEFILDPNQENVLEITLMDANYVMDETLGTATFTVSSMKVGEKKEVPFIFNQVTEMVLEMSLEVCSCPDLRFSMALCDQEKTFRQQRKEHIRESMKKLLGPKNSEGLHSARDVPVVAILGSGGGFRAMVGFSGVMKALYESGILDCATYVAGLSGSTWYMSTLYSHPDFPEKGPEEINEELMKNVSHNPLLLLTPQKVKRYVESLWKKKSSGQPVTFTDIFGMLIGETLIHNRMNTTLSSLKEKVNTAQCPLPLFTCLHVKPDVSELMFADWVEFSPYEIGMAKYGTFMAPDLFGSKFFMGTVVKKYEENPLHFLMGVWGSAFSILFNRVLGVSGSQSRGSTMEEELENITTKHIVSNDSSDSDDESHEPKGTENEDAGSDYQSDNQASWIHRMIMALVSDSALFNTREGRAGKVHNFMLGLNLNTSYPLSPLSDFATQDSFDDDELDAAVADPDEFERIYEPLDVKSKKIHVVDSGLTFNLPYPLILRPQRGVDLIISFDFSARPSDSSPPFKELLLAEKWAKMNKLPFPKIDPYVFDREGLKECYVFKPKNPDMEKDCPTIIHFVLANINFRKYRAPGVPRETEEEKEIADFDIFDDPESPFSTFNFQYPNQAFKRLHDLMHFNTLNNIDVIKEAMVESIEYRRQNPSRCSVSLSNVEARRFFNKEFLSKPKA

[1] = test system: Clostridium difficile ATCC 9689; assay: Clindamycin-induced CDAD hamster model; type: in vivo, Golden Syrian hamsters; conditions: for diarrhea score / Number of animals with diarrhea: vancomycin 50 mg/Kg oral once daily days 2-6; for Number of animals tested positive for C difficile toxins A or B in faeces: vancomycin
[2] = Immune response (phagocytosis) in male broilers; type: in vivo; conditions: 100 mg/kg zinc bacitracin
[3] = Trial 1, Day 1 (baseline), mesalazine 250 mg/Kg/day, infliximab 3 mg/Kg single i.v. dose
[4] = Trial 1, Day 1 to 7, mesalazine 250 mg/Kg/day, infliximab 3 mg/Kg single i.v. dose
[5] = Trial 1, Day 4, mesalazine 250 mg/Kg/day, infliximab 3 mg/Kg single i.v. dose
[6] = Trial 1, Day 7, mesalazine 250 mg/Kg/day, infliximab 3 mg/Kg single i.v. dose
[7] = Trial 1, scale 0-5, mesalazine 250 mg/Kg/day, infliximab 3 mg/Kg single i.v. dose
[8] = Trial 1, mesalazine 250 mg/Kg/day, infliximab 3 mg/Kg single i.v. dose
[9] = Trial 2, Day 1 (baseline), PB6 and S. boulardii 1.5 10^8 CFU/Kg 3 times daily, mesalazine 250 mg/Kg/day, infliximab 3 mg/Kg single dose
[10] = Trial 2, Day 1 to 7, doses as for Day 1
[11] = Trial 2, Day 4, doses as for Day 1
[12] = Trial 2, Day 7, doses as for Day 1
[13] = Trial 2, scale 0-5, PB6 and S. boulardii 1.5 10^8 CFU/Kg 3 times daily, mesalazine 250 mg/Kg/day, infliximab 3 mg/Kg single dose
[14] = Trial 2, PB6 and S. boulardii 1.5 10^8 CFU/Kg 3 times daily, mesalazine 250 mg/Kg/day, infliximab 3 mg/Kg single dose
[15] = first trial, mesalazine 250 mg/Kg/day, infliximab 3 mg/Kg single dose
[16] = second trial, PB6 and S. boulardii 3×1.5 10^8 CFU/Kg/day, mesalazine 250 mg/Kg/day, infliximab 3 mg/Kg single dose
[17] = trial 1, one individual rat, infliximab 3 mg/Kg

Row | Compound | Av. Body weight (TNBS-induced colitis; [3]) [g] | Av. Body weight gain (%) (TNBS-induced colitis; [4]) | Av. Body weight (TNBS-induced colitis; [5]) [g] | Av. Body weight (TNBS-induced colitis; [6]) [g] | Gross morphology score (TNBS-induced colitis; [7]) | Wet weight (g) of a 5 cm colon segment (TNBS-induced colitis; [8]) | Av. Body weight (TNBS-induced colitis; [9]) [g] | Av. Body weight gain (%) (TNBS-induced colitis; [10]) | Av. Body weight (TNBS-induced colitis; [11]) [g] | Av. Body weight (TNBS-induced colitis; [12]) [g] | Gross morphology score (TNBS-induced colitis; [13]) | Wet weight (g) of a 5 cm colon segment (TNBS-induced colitis; [14]) [g] | number of observations of diarrhea recorded (TNBS-induced colitis; [15]) | number of animals affected by diarrhea (TNBS-induced colitis; [16]) | number of observations of diarrhea recorded (TNBS-induced colitis; [16]) | further results
1 | Infliximab: Remicade® (Infliximab), Centocor, standard drug | 180 ± 14 | 1.3 ± 5.4 | 183 ± 7 | 186 ± 6 | 3.0 ± 1.4 | 1.055 ± 0.490‘ g | 208 ± 15 | −5.2 ± 3.4 | 197 ± 14 | 197 ± 13 | 2.0 ± 0.7 | 0.657 ± 0.076 | 8 | 2 | 24 | number of animals affected by diarrhea (TNBS-induced colitis; first trial, infliximab 3 mg/Kg single dose): 1; colon segment weight of one rat (TNBS-induced colitis; [17]): 0.402 g; gross morphology score of one rat (TNBS-induced colitis; [17]): 1
2 | Nc1ccc(O)c(C(=O)O)c1 [Mesalazine, 5-aminosalicylic acid] | 181 ± 11 | 8.8 ± 1.4 | 187 ± 10 | 196 ± 10 | 0.8 ± 0.4 | 0.435 ± 0.052 g | 207 ± 12 | −3.3 ± 5.5 | 199 ± 18 | 201 ± 20 | 1.2 ± 0.8 | 0.445 ± 0.145 | 0 | 1 | 12 | –
3 | CC(C)CCCCCCCCC[C@@H]1CC(=O)N[C@@H](CCC(=O)O)C(=O)N[C@@H](CC(C)C)C(=O)N[C@H](CC(C)C)C(=O)N[C@@H](C(C)C)C(=O)N[C@@H](CC(=O)O)C(=O)N[C@H](CC(C)C)C(=O)N[C@@H](CC(C)C)C(=O)O1 [surfactin] (EL[dL]VD[dL]L; linker N-C via X1) | – | – | – | – | – | – | – | – | – | – | – | – | – | – | – | MIC (Clostridium perfringens; read-out: MIC (C. perfringens), 30′ 0.1 N HCl, 37° C.): 10 to 25 µg/mL (≈ 9.65 to 24.1 µM); MIC (Clostridium perfringens; read-out: MIC (C. perfringens), 60′ 0.1 N HCl, 37° C.): 25 to 50 µg/mL (≈ 24.1 to 48.2 µM); MIC (Clostridium perfringens; read-out: MIC (C. perfringens), 90′ 0.1 N HCl, 37° C.): 25 to 50 µg/mL (≈ 24.1 to 48.2 µM); MIC (Clostridium perfringens; read-out: MIC (C. perfringens), No HCL): 1 to 10 µg/mL (≈ 0.965 to 9.65 µM); MIC (C. perfringens ATCC13124): 10 to 25 µg/mL (≈ 9.65 to 24.1 µM); inhibition of the activity of cytosolic PLA2 (cytosolic PLA2): inhibits
4 | CN[C@H](CC(C)C)C(=O)N[C@H]1C(=O)N[C@@H](CC(N)=O)C(=O)N[C@H]2C(=O)N[C@H]3C(=O)N[C@H](C(=O)N[C@H](C(=O)O)c4cc(O)cc(O)c4-c4cc3ccc4O)[C@H](O)c3ccc(c(Cl)c3)Oc3cc2cc(c3O[C@@H]2O[C@H](CO)[C@@H](O)[C@H](O)[C@H]2O[C@H]2C[C@](C)(N)[C@H](O)[C@H](C)O2)Oc2ccc(cc2Cl)[C@H]1O [Vancomycin, vancomycin] | – | – | – | – | – | – | – | – | – | – | – | – | – | – | – | Average body weight ([1]; Day 0 (baseline), CDAD induced, vancomycin 50 mg/Kg): 218.0 ± 4.6 g; diarrhea score ([1]; Day 1): +; Number of animals with diarrhea ([1]; Day 1, 6 animals): 1; Number of animals tested positive for C difficile toxins A or B in faeces ([1]; Day 1, 6 tested): 0; Number of animals with diarrhea ([1]; Day 2): 2; diarrhea score ([1]; Day 2): ++; Number of animals tested positive for C difficile toxins A or B in faeces ([1]; Day 2, 6 tested): 2; Number of animals with diarrhea ([1]; Day 3): 2; diarrhea score ([1]; Day 3): +++; Number of animals tested positive for C difficile toxins A or B in faeces ([1]; Day 7, 4 tested): 1; Survival at end of treatment period ([1]; day 6, vancomycin 50 mg/Kg once daily): 4 out of 6
5 | zinc bacitracin | – | – | – | – | – | – | – | – | – | – | – | – | – | – | – | Phagocytosis [2]: 6.23
